# Results taken from patent US20210369874A1, “COMPOSITION FOR DETECTING BIOFILMS ON VIABLE TISSUES” (CONVATEC TECHNOLOGIES INC., priority 2010, published 2021).
# Several values for one entry are separate records, joined by “and”; a condition that tells them apart may be missing. Equal entries are not always repeated.
# Legend:
# Type in all cases: cell-based
# [1] = test system: mixed biofilms of Staphylococcus aureus and Pseudomonas aeruginosa; assay: Assessment of biofilm stains using the constant-depth biofilm fermenter (CDFF); conditions: 100 μM stain, two minutes, 4-day mixed biofilms, n=6
# Excerpt: A constant depth biofilm fermenter (CDFF) was used to culture 4-day mixed biofilms of Staphylococcus aureus and Pseudomonas aeruginosa. Briefly, biofilms were formed in recesses in 15 PTFE pans around the rim of a rotating steel turntable onto which inoculum or sterile growth media was allowed to steadily drip. A scraper bar distributed bacterial inoculum or media over the pans as the turntable rotated, maintaining the biofilms at a steady depth. Each pan contained 5 removable plugs, 4 mm in diameter which were recessed to a depth of 300 μm. The resulting biofilms that grew in the plug recesses were reproducible in terms of appearance and microbiological composition and could be removed from the CDFF through a sampling port using sterile instruments. […] Absorption spectra of the aspired supernatants were then measured in a spectrophotometer and these spectra compared to spectra of known concentrations (100 μM) of each stain in 2% SDS.
# S. aureus biofilms = assay: Rose Bengal staining of biofilms, membrane filter biofilm model (S. aureus); conditions: 30 seconds
# Description: (§1) A membrane filter biofilm model was used to study the effect of Rose Bengal concentration on the efficacy of biofilm staining. Briefly, a 5 μl volume of a 5×10^5 cfu/ml suspension of S. aureus or P. aeruginosa was added to the centre of sterile membrane filter discs (pore size 0.2 μm; Anodise, Whatman) which were placed onto 7 ml volumes of sterile Tryptic Soya Broth in lidded 6-well plates. Samples were incubated for 4 hours (immature biofilms), and 24 and 48 hours (mature biofilms), and excess planktonic cells were rinsed from the filters. The biofilms on the filters were stained by pipetting 2 ml volumes of Rose Bengal (60 μM or 300 μM) or saline (negative control) for 30 seconds, followed by rinsing. Rose Bengal was recovered from the biofilm samples by stomaching and overnight digestion in 2% sodium dodecyl sulphate, centrifugation, then measuring of absorption spectra in a UV-vis spectrophotometer. Rose Bengal uptake per sample was determined by comparison of absorption values with a standard curve of Rose Bengal in 2% SDS. […] Only at the highest concentrations of 300 μM did the immature, 4-hour biofilms appear to be stained, although this was likely due to some staining of the filters themselves. […] This simple method for quantifying the uptake of Rose Bengal by biofilms utilises the absorption spectra of the dye. Using the absorption spectra to quantify the dye is similar to detecting the fluorescence using a light source with optical filters. Uptake could then alternatively be observed qualitatively using the naked eye or by observing the fluorescence emission of the Rose Bengal in conjunction with a light source and optical filter.
# P. aeruginosa biofilms = assay: Rose Bengal staining of biofilms, membrane filter biofilm model (P. aeruginosa); conditions: 30 seconds
# Description: as §1
# [2] = test system: mixed biofilms of Staphylococcus aureus and Pseudomonas aeruginosa; assay: Assessment of biofilm stains using the CDC biofilm reactor; conditions: 100 μM stain, two minutes, 48 hour mixed biofilms, n=9
# Description: A Centre for Disease Control (CDC) biofilm reactor was used to culture 48 hour mixed biofilms of Staphylococcus aureus and Pseudomonas aeruginosa. Briefly, biofilms were formed on coupons on reactor rods which were held within the reactor vessel containing a continuously mixed culture of S. aureus and P. aeruginosa at 35° C. Biofilm-containing coupons were removed from the rods, rinsed once by dipping in sterile saline for 5 seconds, then incubated in 10 ml volumes of the following biofilm stains at 100 μM concentration in deionised water, in the dark for two minutes: Erythrosine; Rose Bengal; Alcian Blue; Rhodamine B; Rhodamine 123; Rose Bengal with 2% w/v EDTA and 1% w/v BaCl (RBEB). Following another rinse in saline, nine coupons for each stain were each added to 2 ml volumes of 2% SDS for stomaching at ‘high’ setting for 1 minute then incubated overnight in the dark at 37° C., for digestion. Samples were then spun at 13,000 rpm for 5 minutes to separate the supernatant from digested cell debris. Absorption spectra of the aspired supernatants were then measured in a spectrophotometer and these spectra compared to spectra of known concentrations (100 μM) of each stain in 2% SDS.
# [3] = S. aureus biofilm age 4 h, [RB] 60 μM
# [4] = P. aeruginosa biofilm age 4 h, [RB] 60 μM
compound,measurement,setting,value
CCN(Cc1cccc(S(=O)(=O)[O-])c1)c1ccc(C(=C2C=CC(=[N+](CC)Cc3cccc(S(=O)(=O)[O-])c3)C=C2)c2ccc(O)cc2S(=O)(=O)[O-])cc1.[Na+].[Na+] [Fast Green],effectiveness as stain of biofilms grown in the CDFF (FIG. 1),[1],most effective stain
O=C([O-])c1c(Cl)c(Cl)c(Cl)c(Cl)c1-c1c2cc(I)c(=O)c(I)c-2oc2c(I)c([O-])c(I)cc12.[Na+].[Na+] [Rose Bengal],"Rose Bengal uptake per sample, Avg",S. aureus biofilms; [3],0
same,"Rose Bengal uptake per sample, single replicates 1-3",S. aureus biofilms; [3],0
same,"Rose Bengal uptake per sample, Avg","S. aureus biofilms; S. aureus biofilm age 4 h, [RB] 300 μM, likely some staining of the filters themselves",1.56
same,"Rose Bengal uptake per sample, single replicates 1-3","S. aureus biofilms; S. aureus biofilm age 4 h, [RB] 300 μM, likely some staining of the filters themselves, listed as RB",1.59 and 1.45 and 1.64
same,"Rose Bengal uptake per sample, Avg","S. aureus biofilms; S. aureus biofilm age 24 h, [RB] 60 μM",1.85
same,"Rose Bengal uptake per sample, single replicates 1-3","S. aureus biofilms; S. aureus biofilm age 24 h, [RB] 60 μM, listed as RB",1.66 and 1.72 and 2.17
same,"Rose Bengal uptake per sample, Avg","S. aureus biofilms; S. aureus biofilm age 24 h, [RB] 300 μM",4.44
same,"Rose Bengal uptake per sample, single replicates 1-3","S. aureus biofilms; S. aureus biofilm age 24 h, [RB] 300 μM, listed as RB",4.82 and 4.55 and 3.95
same,"Rose Bengal uptake per sample, Avg","S. aureus biofilms; S. aureus biofilm age 48 h, [RB] 60 μM",1.24
same,"Rose Bengal uptake per sample, single replicates 1-3","S. aureus biofilms; S. aureus biofilm age 48 h, [RB] 60 μM, listed as RB",1.22 and 1.12 and 1.37
same,"Rose Bengal uptake per sample, Avg","S. aureus biofilms; S. aureus biofilm age 48 h, [RB] 300 μM",5.72
same,"Rose Bengal uptake per sample, single replicates 1-3","S. aureus biofilms; S. aureus biofilm age 48 h, [RB] 300 μM, listed as RB",6.26 and 5.18 and 5.71
same,Rose Bengal uptake by mature biofilms (in words),"S. aureus biofilms; S. aureus, 24 and 48 hours biofilms, 60 μM or 300 μM",dye concentration- and biofilm age-dependent manner
same,"Rose Bengal uptake per sample, Avg",P. aeruginosa biofilms; [4],0
same,"Rose Bengal uptake per sample, single replicates 1-3",P. aeruginosa biofilms; [4],0
same,"Rose Bengal uptake per sample, Avg","P. aeruginosa biofilms; P. aeruginosa biofilm age 4 h, [RB] 300 μM, likely some staining of the filters themselves",1.72
same,"Rose Bengal uptake per sample, single replicates 1-3","P. aeruginosa biofilms; P. aeruginosa biofilm age 4 h, [RB] 300 μM, likely some staining of the filters themselves, listed as RB",1.52 and 1.76 and 1.88
same,"Rose Bengal uptake per sample, Avg","P. aeruginosa biofilms; P. aeruginosa biofilm age 24 h, [RB] 60 μM",1.94
same,"Rose Bengal uptake per sample, single replicates 1-3","P. aeruginosa biofilms; P. aeruginosa biofilm age 24 h, [RB] 60 μM, listed as RB",2.04 and 1.76 and 2.02
same,"Rose Bengal uptake per sample, Avg","P. aeruginosa biofilms; P. aeruginosa biofilm age 24 h, [RB] 300 μM",5.10
same,"Rose Bengal uptake per sample, single replicates 1-3","P. aeruginosa biofilms; P. aeruginosa biofilm age 24 h, [RB] 300 μM, listed as RB",5.05 and 5.84 and 4.41
same,"Rose Bengal uptake per sample, Avg","P. aeruginosa biofilms; P. aeruginosa biofilm age 48 h, [RB] 60 μM",2.39
same,"Rose Bengal uptake per sample, single replicates 1-3","P. aeruginosa biofilms; P. aeruginosa biofilm age 48 h, [RB] 60 μM, listed as RB",3.15 and 1.66 and 2.37
same,"Rose Bengal uptake per sample, Avg","P. aeruginosa biofilms; P. aeruginosa biofilm age 48 h, [RB] 300 μM",7.30
same,"Rose Bengal uptake per sample, single replicates 1-3","P. aeruginosa biofilms; P. aeruginosa biofilm age 48 h, [RB] 300 μM, listed as RB",6.20 and 9.01 and 6.69
same,Rose Bengal uptake by mature biofilms (in words),"P. aeruginosa biofilms; P. aeruginosa, 24 and 48 hours biofilms, 60 μM or 300 μM",dye concentration- and biofilm age-dependent manner
Alcian Blue,biofilm staining expressed as ratio of measured absorption: absorption at 100 1.1M (i.e. concentration) (FIG. 2b),[2],most effective biofilm stain
